Laboratory results published in US7511041B2, “Fused azole-pyrimidine derivatives” (Bayer Pharmaceuticals Corporation, priority 2002, dated 2009).
pIC50: −log10 of the molar value. Read-outs that look alike come from different tables or passages of the source.

Experiments:
[1] = target: T1, Recombinant human PI3Kγ (full length human PI3K p110γ) (Homo sapiens, UniProt P48736); experiment: Kinase assay of PI3Kγ (solid-phase lipid kinase assay); assay type: biochemical
T1 construct: full length human PI3K p110γ fused with a His6-tag at the C-terminus; His6 (C); purchased ALEXIS BIOCHEMICALS #201-055-C010; host or cells: S. frugiperda 9 insect cells
T1 sequence (P48736 whole entry, the tested form may be a part): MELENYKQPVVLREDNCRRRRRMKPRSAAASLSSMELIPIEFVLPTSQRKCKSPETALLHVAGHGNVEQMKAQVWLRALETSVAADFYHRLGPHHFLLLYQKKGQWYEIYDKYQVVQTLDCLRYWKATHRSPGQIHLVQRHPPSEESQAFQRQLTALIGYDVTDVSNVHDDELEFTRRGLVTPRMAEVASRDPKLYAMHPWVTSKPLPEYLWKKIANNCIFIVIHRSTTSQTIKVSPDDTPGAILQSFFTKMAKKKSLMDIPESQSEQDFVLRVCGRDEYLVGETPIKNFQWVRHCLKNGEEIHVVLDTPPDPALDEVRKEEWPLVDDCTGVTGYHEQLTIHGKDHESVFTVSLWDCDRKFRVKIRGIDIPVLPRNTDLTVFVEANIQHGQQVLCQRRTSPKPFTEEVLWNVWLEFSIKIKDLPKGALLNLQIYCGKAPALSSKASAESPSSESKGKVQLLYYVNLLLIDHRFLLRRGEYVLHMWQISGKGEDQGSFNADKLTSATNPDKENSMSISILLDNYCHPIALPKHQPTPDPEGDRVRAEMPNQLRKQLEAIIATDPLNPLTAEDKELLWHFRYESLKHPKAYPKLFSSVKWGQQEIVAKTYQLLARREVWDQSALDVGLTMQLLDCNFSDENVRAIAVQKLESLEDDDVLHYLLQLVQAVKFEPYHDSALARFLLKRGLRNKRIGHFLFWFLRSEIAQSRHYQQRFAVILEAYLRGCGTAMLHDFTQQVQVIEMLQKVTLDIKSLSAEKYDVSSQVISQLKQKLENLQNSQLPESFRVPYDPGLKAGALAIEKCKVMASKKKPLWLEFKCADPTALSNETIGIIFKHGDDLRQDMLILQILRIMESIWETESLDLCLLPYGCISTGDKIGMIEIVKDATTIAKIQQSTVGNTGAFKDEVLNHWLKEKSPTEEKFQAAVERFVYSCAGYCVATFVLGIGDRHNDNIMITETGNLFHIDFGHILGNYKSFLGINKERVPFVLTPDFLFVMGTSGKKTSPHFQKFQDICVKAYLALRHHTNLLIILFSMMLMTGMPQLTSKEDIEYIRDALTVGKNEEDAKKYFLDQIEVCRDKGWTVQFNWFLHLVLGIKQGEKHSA
Excerpt: [Determination of IC50 Values of Compounds in Kinase Assay of PI3Kγ]
Chemicals and Assay Materials
LABORATORIES (Toronto, Canada). Recombinant human PI3Kγ (full length human PI3K p110γ fused with a His6-tag at the C-terminus expressed in S. frugiperda 9 insect cells) was obtained from ALEXIS BIOCHEMICALS (#201-055-C010; San Diego, Calif.). […] BIOTECH (Buckinghamshire, UK) and ROCHE DIAGNOSTICS (Mannheim, Germany), respectively. Scintillation cocktails and MicroScint PS™ were purchased from PACKARD (Meriden, Conn.). Maxisorp™ plates were purchased from NALGE NUNC INTERNATIONAL K.K. (Tokyo, Japan). All other chemicals not further specified were from WAKO PURE CHEMICALS (Osaka, Japan).
Solid-Phase Lipid Kinase Assay
The plates were subsequently air-dried by incubation for at least 2 hours in a fume hood. The reaction was set up by mixing 25 μl/well of assay buffer 2× (100 mM MOPSO/NaOH, 0.2 M NaCl, pH 7.0, 8 mM MgCl2, 2 mg/ml BSA (fatty acid-free)) and 50 ng/well PI3Kγ in the lipid pre-coated plate and 10× test compounds were added in 2% DMSO. The reaction was started by adding 20 μl/well of ATP mix (final 10 μM ATP; 0.05 μCi/well [γ^33P]ATP). After incubation at RT for 2 hours, the reaction was terminated by adding 50 μl/well stop solution (50 mM EDTA, pH 8.0). The plate was then washed twice with Tris-buffered saline (TBS, pH 7.4). MicroScint PS™ (PACKARD) scintillation mix was added at 100 μl/well, and radioactivity was counted by using a TopCount™ (PACKARD) scintillation counter.
The inhibition percent at each concentration of compound was calculated, and IC50 values were determined from the inhibition of curve.

[2] = Table 1, isozyme not given, read-out: in vitro
[3] = in vitro PI3K-γ inhibitory activity, class symbols A-D, read-out: in vitro PI3K-gamma
[4] = in vitro PI3K-γ inhibitory activity, class symbols, read-out: in vitro PI3K-gamma

Row | SMILES | melting point | pIC50 [1, 2] | pIC50 [1, 3] | pIC50 [1, 4]
1 | COc1cc2c(cc1OC)C1=NCCN1C(/C=C(\O)c1ccc(Cl)nc1)=N2 [Example 1-55] | 283 °C | 6.30 to 7.00 |  | 
2 | Cc1cc(Br)c2c(c1)C1=NCCN1C(/C=C(\O)c1ccc3[nH]cnc3c1)=N2 [Example 1-47] | > 285 °C | 6.30 to 7.00 |  | 
3 | O=C(NC1=Nc2ccccc2C2=NCCN12)c1csnn1 [Example 2-307] | 219 °C (dec.) |  | 5.70 to 6.30 | 
4 | Cl.O=C(NC1=Nc2ccccc2C2=NCCN12)c1cccc2cccnc12 [Example 2-318] | 316 °C (dec.) |  | < 5.70 | 
5 | COc1cc2c(cc1OC)C1=NCCN1C(/C=C(\O)c1ccc(NCCO)nc1)=N2 [Example 1-54] | 207 °C | 6.30 to 7.00 |  | 
6 | CCCC(=O)NC1=Nc2ccccc2C2=NCCN12 [Example 2-328] | 121 to 122 °C |  | < 5.70 | 
7 | COc1cc(OC)c2c(c1)C1=NCCN1C(NC(=O)c1ccc(NC(C)=O)nc1)=N2 [Example 2-70] | 286 °C (dec.) |  |  | 6.30 to 7.00
8 | Cc1ccc2c(c1)N=C(NC(=O)c1ccc3[nH]cnc3c1)N1CCN=C21.Cl [Example 2-30] | 295 °C |  |  | 6.30 to 7.00
9 | Cl.O=C1NCC(COc2ccc3c(c2)N=C(NC(=O)c2cccnc2)N2CCN=C32)O1 (stereo not shown) [Example 2-204] | 265 to 269 °C (dec.) |  | 6.30 to 7.00 | 
10 | O=C(NC1=Nc2ccccc2C2=NCCN12)c1cccs1 [Example 2-178] | 187 to 188 °C |  |  | 6.30 to 7.00
11 | COc1cc2c(cc1OC)C1=NCCN1C(/C=C(\O)c1cccc(Cl)c1)=N2 [Example 1-186] | 257 to 259 °C | < 5.70 |  | 
12 | Cl.O/C(=C\C1=Nc2ccc(O)cc2C2=NCCN12)c1cccnc1 [Example 1-125] | > 300 °C | > 7.00 |  | 
13 | Cc1nocc1C(=O)NC1=Nc2ccccc2C2=NCCN12.Cl [Example 2-186] | 285 °C (dec.) |  |  | 6.30 to 7.00
14 | O/C(=C\C1=Nc2ccc(Cl)cc2C2=NCCN12)c1cccnc1 [Example 1-189] | 260 °C | 5.70 to 6.30 |  | 
15 | CC(=O)Nc1ccc(/C(O)=C/C2=Nc3cc(N4CCCC(O)C4)ccc3C3=NCCN23)cn1.Cl (stereo not shown) [Example 1-102] | 238 °C (dec.) | 6.30 to 7.00 |  | 
16 | O=C(NC1=Nc2c(F)cccc2C2=NCCN12)c1cccnc1 [Example 2-99] | 243 °C |  |  | 6.30 to 7.00
17 | O/C(=C\C1=Nc2ccncc2C2=NCCN12)c1cccnc1 [Example 1-165] | 250 °C | 6.30 to 7.00 |  | 
18 | Cl.O/C(=C\C1=Nc2ncccc2C2=NCCN12)c1ccc2[nH]cnc2c1 [Example 1-160] | 247 °C (dec.) | 6.30 to 7.00 |  | 
19 | Cc1ccc(C(=O)NC2=Nc3ccccc3C3=NCCN23)s1 [Example 2-302] | 192 to 193 °C |  | 5.70 to 6.30 | 

Row | SMILES | melting point | pIC50 [1, 2] | pIC50 [1, 3] | pIC50 [1, 4]
20 | COc1cc2c(cc1OC)C1=NCCN1C(/C=C(\O)c1ccc(C)nc1)=N2 [Example 1-49] | 200 to 204 °C | > 7.00 |  | 
21 | Nc1cncc(C(=O)NC2=Nc3ccccc3C3=NCCN23)c1.O=C(O)C(F)(F)F [Example 2-145] | 220 °C (dec.) |  |  | 6.30 to 7.00
22 | O=C(NC1=Nc2ccccc2C2=NCCN12)c1ccncc1 [Example 2-278] | 224 to 225 °C |  | 5.70 to 6.30 | 
23 | Cc1nc(C)c(/C(O)=C/C2=Nc3ccccc3C3=NCCN23)s1 [Example 1-156] | 222 °C | > 7.00 |  | 
24 | CC(C)(C)OC(=O)Nc1cccc(C(=O)NC2=Nc3ccccc3C3=NCCN23)c1 [Example 2-265] | 280 °C (dec.) |  | < 5.70 | 
25 | O=C(Cc1cccs1)NC1=Nc2ccccc2C2=NCCN12 [Example 2-324] | 122 to 123 °C |  | < 5.70 | 
26 | COc1c(OCC(=O)N2CCOCC2)ccc2c1N=C(/C=C(\O)c1cccnc1)N1CCN=C21 [Example 1-29] | 235 °C | > 7.00 |  | 
27 | COc1c(OCCN2CCCC2)ccc2c1N=C(/C=C(\O)c1cccnc1)N1CCN=C21 [Example 1-21] | 204 to 205 °C | > 7.00 |  | 
28 | CC(=O)Nc1ccc(/C(O)=C/C2=Nc3c(C)cc(Br)cc3C3=NCCN23)cn1.Cl [Example 1-44] | > 290 °C | 6.30 to 7.00 |  | 
29 | COc1cc2c(cc1OC)C1=NCCN1C(/C=C(\O)c1sc(C)nc1C)=N2 [Example 1-60] | 292 °C | > 7.00 |  | 
30 | Cl.O=C(NC1=Nc2c(F)cccc2C2=NCCN12)c1cccnc1 [Example 2-100] | 288 °C |  |  | > 7.00
31 | COc1c(OCCN(C)C)ccc2c1N=C(/C=C(\O)c1cccnc1)N1CCN=C21 [Example 1-19] | 183 to 184 °C | 6.30 to 7.00 |  | 
32 | O=C(NC1=Nc2ccccc2C2=NCCN12)c1csc(-c2cccnc2)n1 [Example 2-319] | 260 to 261 °C |  | < 5.70 | 
33 | COc1ccc2c(c1)N=C(NC(=O)c1cccnc1)N1CCN=C21 [Example 2-20] | 281 °C (dec.) |  |  | 6.30 to 7.00
34 | C[C@@H]1CN=C2c3ccccc3N=C(NC(=O)c3cccnc3)N21.Cl [Example 2-366] | 270 °C (dec.) |  | < 5.70 | 
35 | Cc1ccc2c(c1)N=C(NC(=O)c1cccnc1)N1CCN=C21 [Example 2-27] | 207 °C |  |  | > 7.00
36 | COc1cc2c(cc1OC)C1=NCCN1C(/C=C(\O)c1ccc3[nH]cnc3c1)=N2.Cl [Example 1-57] | 240 °C (dec.) | > 7.00 |  | 
37 | O=C(NC1=Nc2ccccc2C2=NCCN12)c1ccoc1 [Example 2-185] | 217 to 218 °C |  |  | 6.30 to 7.00
38 | O/C(=C\C1=Nc2ccccc2C2=NCCN12)c1ccncc1 [Example 1-175] | 204 to 205 °C | 6.30 to 7.00 |  | 

Row | SMILES | melting point | pIC50 [1, 2] | pIC50 [1, 3] | pIC50 [1, 4]
39 | COc1ccc2c(c1Br)N=C(NC(=O)c1cccnc1)N1CCN=C21 [Example 2-65] | 264 °C |  |  | > 7.00
40 | Cl.O=C(NC1=Nc2cc(N3CCOCC3)ccc2C2=NCCN12)c1ccc2[nH]cnc2c1 [Example 2-11] | 294 °C (dec.) |  |  | > 7.00
41 | Cl.O=C(NC1=Nc2cc(N3CCOCC3)ccc2C2=NCCN12)c1cccnc1 [Example 2-8] | 283 °C |  |  | > 7.00
42 | COc1c(O)ccc2c1N=C(/C=C(\O)c1cccnc1)N1CCN=C21.Cl [Example 1-9] | 245 °C (dec.) | > 7.00 |  | 
43 | Cl.O=C(NC1=Nc2ccc(Br)cc2C2=NCCN12)c1cccs1 [Example 2-352] | 275 °C |  | 5.70 to 6.30 | 
44 | COc1cc2c(cc1Br)C1=NCCN1C(NC(=O)c1cccnc1)=N2.Cl [Example 2-67] | 289 °C (dec.) |  |  | 6.30 to 7.00
45 | N#Cc1ccc(/C(O)=C/C2=Nc3ccccc3C3=NCCN23)cc1 [Example 1-172] | 260 to 264 °C | < 5.70 |  | 
46 | Cc1nc(C)c(C(=O)NC2=Nc3cc(N4CCOCC4)ccc3C3=NCCN23)s1.Cl [Example 2-17] | 255 °C (dec.) |  |  | > 7.00
47 | Nc1cncc(C(=O)NC2=Nc3ccccc3C3=NCCN23)c1 [Example 2-144] | 263 to 266 °C |  |  | > 7.00
48 | O=C(NC1=Nc2ccccc2C2=NCCN12)C1CCCCC1 [Example 2-335] | 170 to 172 °C |  | < 5.70 | 
49 | CC(C)(C)C(=O)NC1=Nc2ccccc2C2=NCCN12 [Example 2-331] | 135 to 136 °C |  | < 5.70 | 
50 | O/C(=C\C1=Nc2cc(C(F)(F)F)ccc2C2=NCCN12)c1cccnc1 [Example 1-121] | 264 °C | 5.70 to 6.30 |  | 
51 | Cc1ncccc1C(=O)NC1=Nc2cc(Br)ccc2C2=NCCN12.Cl [Example 2-43] | 252 °C (dec.) |  |  | 6.30 to 7.00
52 | COc1ccc2c(c1OC)N=C(NC(=O)c1cnc3[nH]cnc3c1)N1CCN=C21 [Example 2-51] | 233 °C (dec.) |  |  | > 7.00
53 | COc1c(OCC#N)ccc2c1N=C(/C=C(\O)c1cccnc1)N1CCN=C21 [Example 1-195] | 284 to 285 °C | > 7.00 |  | 
54 | CN1CCN(c2ccc3c(c2)N=C(/C=C(\O)c2cccnc2)N2CCN=C32)CC1.Cl [Example 1-104] | 288 °C | 6.30 to 7.00 |  | 
55 | CCCNc1ccc(/C(O)=C/C2=Nc3ccccc3C3=NCCN23)cn1 [Example 1-140] | 197 °C | 6.30 to 7.00 |  | 
56 | Cl.O=C(NC1=Nc2cc(C(F)(F)F)ccc2C2=NCCN12)c1ccc2[nH]cnc2c1 [Example 2-37] | 288 °C |  |  | > 7.00
